# pIC50: −log10 of the molar value. The source made the active and inactive calls. The rule behind the calls is not given here.
# Tests used:
# [1] = system: HeLa; assay: Antiproliferative activity against human HeLa cells assessed as reduction in cell viability after 96 hrs by MTT assay; type: functional, cell-based
# [2] = system: NCI-H460; assay: Antiproliferative activity against human H460 cells assessed as reduction in cell viability after 96 hrs by MTT assay; type: functional, cell-based; conditions: NCI-H460, 96 h
# [3] = system: MDA-MB-231; assay: Antiproliferative activity against human MDA-MB-231 cells assessed as reduction in cell viability by measuring release of nitrite at 100 uM after 180 mins by Griess reagent analysis; type: functional; conditions: 3 h
# [4] = system: MDA-MB-231; assay: Antiproliferative activity against human MDA-MB-231 cells assessed as reduction in cell viability after 96 hrs by MTT assay; type: functional, cell-based; conditions: MDA-MB-231, 96 h
# [5] = system: MX1; assay: Induction of apoptosis in human MX1 cells assessed as viable cells measured at 5 uM after 48 hrs by FITC-Annexin-V and propidium iodide based flow cytometric analysis (reference value: 88.4%); type: functional; conditions: read-out: Activity
# [6] = system: MDA-MB-231; assay: Induction of morphological changes in human MDA-MB-231 cells assessed as decrease in cell number at 5 uM measured after 24 hrs by bright field inverted microscopic analysis; type: functional, cell-based
# [7] = system: MDA-MB-231; assay: Induction of apoptosis in human MDA-MB-231 cells assessed as late apoptotic cells measured at 5 uM after 48 hrs by FITC-Annexin-V and propidium iodide based flow cytometric analysis (reference value: 2.68%); type: functional
# [8] = system: MDA-MB-231; assay: Induction of morphological changes in human MDA-MB-231 cells assessed as decrease in cell size at 5 uM measured after 24 hrs by bright field inverted microscopic analysis; type: functional, cell-based
# [9] = system: MDA-MB-231; assay: Induction of apoptosis in human MDA-MB-231 cells assessed as viable cells measured at 5 uM after 48 hrs by FITC-Annexin-V and propidium iodide based flow cytometric analysis (reference value: 94.4% ); type: functional; conditions: read-out: Activity
# [10] = system: MX1; assay: Induction of morphological changes in human MX1 cells assessed as decrease in cell number at 5 uM measured after 24 hrs by bright field inverted microscopic analysis; type: functional, cell-based
# [11] = system: MX1; assay: Induction of apoptosis in human MX1 cells assessed as early apoptotic cells measured at 5 uM after 48 hrs by FITC-Annexin-V and propidium iodide based flow cytometric analysis (reference value: 6.30%); type: functional
# [12] = system: MDA-MB-231; assay: Induction of apoptosis in human MDA-MB-231 cells assessed as necrotic cells measured at 5 uM after 48 hrs by FITC-Annexin-V and propidium iodide based flow cytometric analysis (reference value: 0.253 %); type: functional
# [13] = system: MDA-MB-231; assay: Induction of morphological changes in human MDA-MB-231 cells at 5 uM measured after 24 hrs by bright field inverted microscopic analysis; type: functional, cell-based
# [14] = system: MDA-MB-231; assay: Antiproliferative activity against human MDA-MB-231 cells assessed as decrease in number of colony formation at 5 uM measured after 14 days by crystal violet staining based analysis; type: functional, cell-based; conditions: time 14.0 day
# [15] = system: MDA-MB-231; assay: Induction of apoptosis in human MDA-MB-231 cells assessed as early apoptotic cells measured at 5 uM after 48 hrs by FITC-Annexin-V and propidium iodide based flow cytometric analysis (reference value: 2.71%); type: functional
# [16] = system: MX1; assay: Induction of morphological changes in human MX1 cells assessed as decrease in cell size at 5 uM measured after 24 hrs by bright field inverted microscopic analysis; type: functional, cell-based
# [17] = system: MX1; assay: Induction of apoptosis in human MX1 cells assessed as necrotic cells measured at 5 uM after 48 hrs by FITC-Annexin-V and propidium iodide based flow cytometric analysis (reference value: 0.055 %); type: functional
# [18] = system: MX1; assay: Induction of morphological changes in human MX1 cells at 5 uM measured after 24 hrs by bright field inverted microscopic analysis; type: functional, cell-based
# [19] = system: MX1; assay: Induction of apoptosis in human MX1 cells assessed as late apoptotic cells measured at 5 uM after 48 hrs by FITC-Annexin-V and propidium iodide based flow cytometric analysis (reference value: 5.24%); type: functional
Compound,pIC50 [1],pIC50 [2],pIC50 [4],Nitrite release [3] [µM],further results
CC1(C)C=Cc2c(c(CN3CCC(CCOc4no[n+]([O-])c4S(=O)(=O)c4ccccc4)CC3)cc3c2[nH]c2ccc(C(C)(C)C)cc23)O1,5.74,5.71,5.46,19.7,–
CC1(C)C=Cc2c(c(CN3CCC(COc4no[n+]([O-])c4S(=O)(=O)c4ccccc4)CC3)cc3c2[nH]c2ccc(C(C)(C)C)cc23)O1,5.41,5.35,5.43,–,–
CC1(C)C=Cc2c(c(CNCCOc3no[n+]([O-])c3S(=O)(=O)c3ccccc3)cc3c2[nH]c2ccc(C(C)(C)C)cc23)O1,5.27,5.22,5.37,19.7,–
CC1(C)C=Cc2c(c(/C=C/C(=O)N3CCC(CCOc4no[n+]([O-])c4S(=O)(=O)c4ccccc4)CC3)cc3c2[nH]c2ccc(C(C)(C)C)cc23)O1,6.62,5.50,6.68,19.7,–
CC1(C)C=Cc2c(c(/C=C/C(=O)NCCCOc3no[n+]([O-])c3S(=O)(=O)c3ccccc3)cc3c2[nH]c2ccc(C(C)(C)C)cc23)O1,6.64,5.89,6.74,19.7,–
CC(CNC(=O)/C=C/c1cc2c([nH]c3ccc(C(C)(C)C)cc32)c2c1OC(C)(C)C=C2)Oc1no[n+]([O-])c1S(=O)(=O)c1ccccc1 (stereo not given),6.68,6.00,6.70,–,–

# Second part, led by results:
pIC50 [1],pIC50 [2],pIC50 [4],Compound,Nitrite release [3] [µM],further results
8.22,–,7.30,CC(=O)O[C@H]1C(=O)[C@@]2(C)[C@H]([C@H](OC(=O)c3ccccc3)[C@]3(O)C[C@H](OC(=O)[C@H](O)[C@@H](NC(=O)c4ccccc4)c4ccccc4)C(C)=C1C3(C)C)[C@]1(OC(C)=O)CO[C@@H]1C[C@@H]2O [PACLITAXEL],19.7,–
5.89,5.44,5.46,CN1CCN(Cc2cc3c([nH]c4ccc(C(C)(C)C)cc43)c3c2OC(C)(C)C=C3)CC1,–,viability at 5 µM [5]: 36%; Activity [6]: Active; Activity [7]: 7.79%; Activity [8]: Active; viability at 5 µM [9]: 81.3%; Activity [10]: Active; Activity [11]: 53.8%; Activity [12]: 0.745%; Activity [13]: Active; Activity [14]: Active; Activity [15]: 10.2%; Activity [16]: Active; Activity [17]: 0.175%; Activity [18]: Active; Activity [19]: 9.97%
6.37,5.87,6.54,CC1(C)C=Cc2c(c(/C=C/C(=O)N3CCC(COc4no[n+]([O-])c4S(=O)(=O)c4ccccc4)CC3)cc3c2[nH]c2ccc(C(C)(C)C)cc23)O1,19.7,–
5.87,5.57,5.45,CC1(C)C=Cc2c(c(/C=C/C(=O)N3CCC(Oc4no[n+]([O-])c4S(=O)(=O)c4ccccc4)CC3)cc3c2[nH]c2ccc(C(C)(C)C)cc23)O1,–,–
6.62,5.22,6.42,CC1(C)C=Cc2c(c(/C=C/C(=O)N3CCCC3COc3no[n+]([O-])c3S(=O)(=O)c3ccccc3)cc3c2[nH]c2ccc(C(C)(C)C)cc23)O1 (stereo not given),19.7,–
4.98,4.79,4.90,NCCOc1no[n+]([O-])c1S(=O)(=O)c1ccccc1,–,–
5.79,5.86,5.45,CC1(C)C=Cc2c(c(CN3CCC(Oc4no[n+]([O-])c4S(=O)(=O)c4ccccc4)CC3)cc3c2[nH]c2ccc(C(C)(C)C)cc23)O1,19.7,–
5.12,5.13,5.23,CC1(C)C=Cc2c(c(CNCCCOc3no[n+]([O-])c3S(=O)(=O)c3ccccc3)cc3c2[nH]c2ccc(C(C)(C)C)cc23)O1,19.7,–

# From ChEMBL document CHEMBL5247609, “Novel nitric oxide-releasing derivatives of pyranocarbazole as antitumor agents: Design, synthesis, biological evaluation, and nitric oxide release studies” (Eur J Med Chem, 2022)
